This is an account of results in US7507860B2 (Pfizer Inc., priority 2004, dated 2009).

For the assay, the system named is male C3H/HeN mice. Kind of assay: Modified telogen conversion assay (animal model for androgenetic alopecia). It counts as in vivo, mouse. Conditions: 3 w/v % topical, twice daily for 4 weeks. The text has this: It has been discovered that male C3H/HeN mice may be used in the telogen conversion assay, when evaluating anti-androgen test compounds. Thus, the model relates to a modification of the existing telogen conversion assay. Male C3H/HeN mice approximately 7 weeks old are utilized. These animals are also uniformly in telogen, like their female counterparts. However, once shaven, the androgens inherently present in these male mice inhibit the conversion of the hair follicles to the anagen phase. An anti-androgen will block this androgenic effect and the follicles will convert to anagen, like their female counterparts.
The compound described in Example 1 was submitted for further testing utilizing the modified telogen conversion assay, described above. The testing was carried out in the following manner.
Male C3H/HeN mice, 6 to 7 weeks old (Charles River Laboratories, Raleigh, N.C.) were used for the study. Fur was clipped from the dorsal region of the mice prior to initiation of the study. Only mice with pink skin, a visual indication of the telogen phase, were selected for inclusion in the study. […]
The treatment area was observed and graded every other day for signs of hair growth. The hair growth response was quantified by recording, for each animal, the day on which signs of hair growth first appeared over the treated area. […]

Molecules are shown by their SMILES.

As to `CCCC(Oc1ccc(C#N)c(C(F)(F)F)c1)C(=O)NCc1ccccc1` (stereo not shown) [Example 4, 2-(4-Cyano-3-trifluoromethyl-phenoxy)-pentanoic acid benzylamide], the “Induction of anagen (first signs of hair growth) versus vehicle control” value is listed as “Anagen did not occur in the test group prior to its initiation in the vehicle control group”.
